Data reported in patent US12552766B2, “Pesticidally active azole amide compounds” (SYNGENTA CROP PROTECTION AG, priority 2019, dated 2026).

Experiments:
Format in all cases: in vivo
[1] = tested on: Plutella xylostella (Diamondback Moth); assay: Example B13: Plutella xylostella, artificial diet, 96-well; details: 216 h, application rate of 500 ppm, eggs/L1 larvae, 9 days after infestation
Protocol: 96-well microtiter plates containing artificial diet were treated with aqueous test solutions, prepared from 10′000 ppm DMSO stock solutions, by a liquid handling robot. After drying, eggs (˜30 per well) were infested onto a netted lid which was suspended above the diet. The eggs hatch and L1 larvae move down to the diet. The samples were assessed for mortality 9 days after infestation.

[2] = tested on: Spodoptera littoralis (Egyptian Cotton Leaf Worm); assay: Example B9: Spodoptera littoralis, spray on cotton leaf discs; details: foliar, 72 h, application rate of 200 ppm, L1 larvae, 3 days after infestation, read-out: control in at least one of the three categories (mortality, anti-feedant effect, or growth inhibition)
Protocol: Cotton leaf discs were placed onto agar in 24-well microtiter plates and sprayed with aqueous test solutions prepared from 10′000 ppm DMSO stock solutions. After drying the leaf discs were infested with five L1 larvae. The samples were assessed for mortality, anti-feeding effect, and growth inhibition in comparison to untreated samples 3 days after infestation. Control of Spodoptera littoralis by a test sample is given when at least one of the categories mortality, anti-feedant effect, and growth inhibition is higher than the untreated sample.

[3] = tested on: Diabrotica Balteata (Corn Root Worm); assay: Example B1: Diabrotica balteata, spray on maize sprouts; details: 96 h, application rate of 200 ppm, L2 larvae, 4 days after infestation, read-out: control in at least one of the two categories (mortality or growth inhibition)
Protocol: Maize sprouts placed onto an agar layer in 24-well microtiter plates were treated with aqueous test solutions prepared from 10′000 ppm DMSO stock solutions by spraying. After drying, the plates were infested with L2 larvae (6 to 10 per well). The samples were assessed for mortality and growth inhibition in comparison to untreated samples 4 days after infestation.

[4] = tested on: Plutella xylostella (Diamond Back Moth); assay: Example B5: Plutella xylostella, artificial diet, 24-well; details: 192 h, application rate of 200 ppm, eggs, 8 days after infestation, read-out: control in at least one of the two categories (mortality or growth inhibition)
Protocol: 24-well microtiter plates with artificial diet were treated with aqueous test solutions prepared from 10′000 ppm DMSO stock solutions by pipetting. After drying, Plutella eggs were pipetted through a plastic stencil onto a gel blotting paper and the plate was closed with it. The samples were assessed for mortality and growth inhibition in comparison to untreated samples 8 days after infestation.

[5] = tested on: Chilo suppressalis (Striped Rice Stemborer); assay: Example B4: Chilo suppressalis, artificial diet; details: 144 h, application rate of 200 ppm, L2 larvae, 6 days after infestation, read-out: control in at least one of the three categories (mortality, anti-feedant effect, or growth inhibition)
Protocol: 24-well microtiter plates with artificial diet were treated with aqueous test solutions prepared from 10′000 ppm DMSO stock solutions by pipetting. After drying, the plates were infested with L2 larvae (6-8 per well). The samples were assessed for mortality, anti-feeding effect, and growth inhibition in comparison to untreated samples 6 days after infestation. Control of Chilo suppressalis by a test sample is given when at least one of the categories mortality, anti-feedant effect, and growth inhibition is higher than the untreated sample.

CC(NC(=O)c1cc(Cl)cc(C(F)(F)F)c1)c1nc(Br)nn1-c1ccc(C#N)cn1 (centres unmarked) [Compound P31, N-[1-[5-bromo-2-(5-cyano-2-pyridyl)-1,2,4-triazol-3-yl]ethyl]-3-chloro-5-(trifluoromethyl) benzamide]
≥ 80%: mortality at 500 ppm [1] | percent control (mortality, anti-feedant effect or growth inhibition) at 200 ppm [2] | percent control (mortality or growth inhibition) at 200 ppm [3] | percent control (mortality or growth inhibition) at 200 ppm [4] | percent control (mortality, anti-feedant effect or growth inhibition) at 200 ppm [5]

CC(NC(=O)c1cc(Br)cc(C(F)(F)F)c1)c1nc(Br)nn1-c1ncc(OC(F)F)cn1 (centres unmarked) [Compound P1, 3-bromo-N-[1-[5-bromo-2-[5-(difluoromethoxy)pyrimidin-2-yl]-1,2,4-triazol-3-yl]ethyl]-5-(trifluoromethyl) benzamide]
≥ 80%: mortality at 500 ppm [1] | percent control (mortality, anti-feedant effect or growth inhibition) at 200 ppm [2] | percent control (mortality or growth inhibition) at 200 ppm [3] | percent control (mortality or growth inhibition) at 200 ppm [4] | percent control (mortality, anti-feedant effect or growth inhibition) at 200 ppm [5]

CC(NC(=O)c1cc(C(F)(F)F)cc(C(F)(F)F)c1)c1nc(Br)nn1-c1ccc(OCC(F)F)cn1 (centres unmarked) [Compound P15, N-[1-[5-bromo-2-[5-(2,2-difluoroethoxy)-2-pyridyl]-1,2,4-triazol-3-yl]ethyl]-3,5-bis(trifluoromethyl) benzamide]
≥ 80%: mortality at 500 ppm [1] | percent control (mortality, anti-feedant effect or growth inhibition) at 200 ppm [2] | percent control (mortality or growth inhibition) at 200 ppm [3] | percent control (mortality or growth inhibition) at 200 ppm [4] | percent control (mortality, anti-feedant effect or growth inhibition) at 200 ppm [5]

CC(NC(=O)c1cc(Br)cc(C(F)(F)F)c1)c1nc(Br)nn1-c1ccc(OC(F)F)cn1 (centres unmarked) [Compound P13, 3-bromo-N-[1-[5-bromo-2-[5-(difluoromethoxy)-2-pyridyl]-1,2,4-triazol-3-yl]ethyl]-5-(trifluoromethyl) benzamide]
≥ 80%: mortality at 500 ppm [1] | percent control (mortality, anti-feedant effect or growth inhibition) at 200 ppm [2] | percent control (mortality or growth inhibition) at 200 ppm [3] | percent control (mortality or growth inhibition) at 200 ppm [4] | percent control (mortality, anti-feedant effect or growth inhibition) at 200 ppm [5]

CC(NC(=O)c1cc(Cl)cc(C(F)(F)F)c1)c1nc(Br)nn1-c1ncc(OCC(F)F)cn1 (centres unmarked) [Compound P27, N-[1-[5-bromo-2-[5-(2,2-difluoroethoxy)pyrimidin-2-yl]-1,2,4-triazol-3-yl]ethyl]-3-chloro-5-(trifluoromethyl) benzamide]
≥ 80%: mortality at 500 ppm [1] | percent control (mortality, anti-feedant effect or growth inhibition) at 200 ppm [2] | percent control (mortality or growth inhibition) at 200 ppm [3] | percent control (mortality or growth inhibition) at 200 ppm [4] | percent control (mortality, anti-feedant effect or growth inhibition) at 200 ppm [5]

CC(NC(=O)c1cc(Br)cc(C(F)(F)F)c1)c1nc(Br)nn1-c1ncc(OCC(F)F)cn1 (centres unmarked) [Compound P18, 3-bromo-N-[1-[5-bromo-2-[5-(2,2-difluoroethoxy)pyrimidin-2-yl]-1,2,4-triazol-3-yl]ethyl]-5-(trifluoromethyl) benzamide]
≥ 80%: mortality at 500 ppm [1] | percent control (mortality, anti-feedant effect or growth inhibition) at 200 ppm [2] | percent control (mortality or growth inhibition) at 200 ppm [3] | percent control (mortality or growth inhibition) at 200 ppm [4] | percent control (mortality, anti-feedant effect or growth inhibition) at 200 ppm [5]

CC(NC(=O)c1cc(C(F)(F)F)cc(C(F)(F)F)c1)c1nc(Br)nn1-c1ncc(OCC(F)(F)F)cn1 (centres unmarked) [Compound P44, N-[1-[5-bromo-2-[5-(2,2,2-trifluoroethoxy)pyrimidin-2-yl]-1,2,4-triazol-3-yl]ethyl]-3,5-bis(trifluoromethyl) benzamide]
≥ 80%: mortality at 500 ppm [1] | percent control (mortality, anti-feedant effect or growth inhibition) at 200 ppm [2] | percent control (mortality or growth inhibition) at 200 ppm [3] | percent control (mortality or growth inhibition) at 200 ppm [4] | percent control (mortality, anti-feedant effect or growth inhibition) at 200 ppm [5]
